AC50 and IC50 data for 20 compounds are collected here from patent publication US12606541B2, “PPARg modulators and methods of use” (Eisai R&D Management Co., Ltd., priority 2020, dated 2026).

Like-named read-outs stand apart in the source and are kept apart here.

For experiment [1], the target named is T1, His6-TEV-PPARγ-(234-505) (Homo sapiens, UniProt P37231).
T1 construct: The His6-TEV-PPARγ-(234-505) protein for assay was expressed and purified; TEV cleavage site (N); made in house
T1 sequence (P37231 234-505): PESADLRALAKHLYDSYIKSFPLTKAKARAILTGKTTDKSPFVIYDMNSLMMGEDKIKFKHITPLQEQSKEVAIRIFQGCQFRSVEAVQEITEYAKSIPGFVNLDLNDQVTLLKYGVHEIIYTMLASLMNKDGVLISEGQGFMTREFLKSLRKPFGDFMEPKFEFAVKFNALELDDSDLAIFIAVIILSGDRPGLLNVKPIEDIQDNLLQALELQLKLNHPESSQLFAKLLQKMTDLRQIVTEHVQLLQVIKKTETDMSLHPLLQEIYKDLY
The experiment can be described thus: TR-FRET Assay to Measure Co-R Peptide Recruitment to PPARγ. It counts as biochemical. The settings on record: Co-R peptide (SMRT-ID2) recruitment; top final concentration 20 μM; read-out: TR-FRET i-Ag; AC50. The procedure, abridged: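 His-tagged PPARγ (or controls) was preincubated with compound for 20 minutes at room temperature, then 5 nM anti-His terbium antibody and 200 nM FITC-labeled SMRT-ID2 corepressor peptide (final) were added for a further hour. TR-FRET signal was normalized to percent response using 500 nM T0070907 and DMSO controls.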

Experiment [2] relates to UM-UC-9 engineered cells. The experiment can be described thus: Cell proliferation / short-term viability assay, CellTiter-Glo 144 h. The class given is cell-based, human. The following applies: read-out: CTGlo 144 h UMUC9.5, G150. The procedure, abridged:
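UM-UC-9 engineered assay-ready cells seeded at 500 cells/well in high-glucose DMEM/10% FBS, treated from dose-response plates, grown at 37° C, 5% CO2. CellTiter-Glo 2.0 luminescence read on day 7, with a day-0 pretreatment plate as T0 reference and DMSO wells as negative control.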
In general terms: In ATP-based viability assays light output follows the ATP content of the culture.

For “(1R,3S,5S)-8-[5-(5-fluoro-2-methoxypyridin-4-yl)-1H-pyrazole-3-carbonyl]-N-[(1r,4r)-4-(2-methoxyethoxy)-4-(trifluoromethyl)cyclohexyl]-8-azabicyclo[3.2.1]octane-3-carboxamide and (1R,3S,5S)-8-[5-(5-fluoro-2-methoxypyridin-4-yl)-1H-pyrazole-3-carbonyl]-N-[(1s,4s)-4-(2-methoxyethoxy)-4-(trifluoromethyl)cyclohexyl]-8-azabicyclo[3.2.1]octane-3-carboxamide [Example 304]”, the AC50 in experiment [1] is 0.0444 µM. The IC50 in experiment [2] amounted to 0.201 µM.

In the case of `N#Cc1cc(-c2cc(C(=O)N3CCC(C(=O)NC4CCC(O)(C(F)(F)F)CC4)CC34CC4)n[nH]2)ncn1` (single isomer, unassigned) [Example 528-B], the AC50 in experiment [1] was found to be 0.014 µM. In experiment [2], the IC50 came out at 0.405 µM.

For `COc1cc(-c2cc(C(=O)N3CCC(C(=O)N(C)Cc4cccc(Cl)c4)CC3)n[nH]2)c(F)cn1` [Example 161, N-(3-chlorobenzyl)-1-(5-(5-fluoro-2-methoxypyridin-4-yl)-1H-pyrazole-3-carbonyl)-N-methylpiperidine-4-carboxamide], the AC50 in experiment [1] amounted to 0.941 µM. The IC50 in experiment [2] (Homo sapiens, UM-UC-9, 144 h) came out at 1.95 µM.

For `COc1cc(-c2cc(C(=O)N3[C@@H]4CC[C@H]3C[C@H](C(=O)NC3CCC(N)(C(F)(F)F)CC3)C4)n[nH]2)c(F)cn1` (stereo partly drawn) [Example 441, (1R,3s,5S)—N-(4-amino-4-(trifluoromethyl)cyclohexyl)-8-(5-(5-fluoro-2-methoxypyridin-4-yl)-1H-pyrazole-3-carbonyl)-8-azabicyclo[3.2.1]octane-3-carboxamide], the AC50 in experiment [1] is 0.0567 µM. For the same compound, in experiment [2] (Homo sapiens, UM-UC-9, 144 h), the IC50 turned out to be 0.35 µM.

Turning to `COc1cc(-c2cc(C(=O)N3CCC(C(=O)NC4CCC(C)CC4)CC3)n[nH]2)c(Cl)cn1` (mixture of isomers) [Example 101, 1-(5-(5-chloro-2-methoxypyridin-4-yl)-1H-pyrazole-3-carbonyl)-N-((1s,4s)-4-methylcyclohexyl)piperidine-4-carboxamide and 1-(5-(5-chloro-2-methoxypyridin-4-yl)-1H-pyrazole-3-carbonyl)-N-((1r,4r)-4-methylcyclohexyl)piperidine-4-carboxamide], the AC50 in experiment [1] came out at 0.0294 µM. Further, in experiment [2], the IC50 stood at 0.305 µM.

Regarding `COc1cc(-c2cc(C(=O)N3CCC(C(=O)NCc4cc5ccccc5[nH]4)CC3)n[nH]2)c(Cl)cn1` [Example 250, N-((1H-indol-2-yl)methyl)-1-(5-(5-chloro-2-methoxypyridin-4-yl)-1H-pyrazole-3-carbonyl)piperidine-4-carboxamide], the AC50 in experiment [1] amounted to 0.0247 µM. Moreover, the IC50 in experiment [2] (Homo sapiens, UM-UC-9, 144 h) was found to be 0.43 µM.

As to `COc1cc(-c2cc(C(=O)N3CC[C@H](C(=O)NC4CCC(O)(C(C)(F)F)CC4)CC34CC4)n[nH]2)c(F)cn1` (single isomer, unassigned) [Example 375-A], the AC50 in experiment [1] is 0.0034 µM. Moreover, the IC50 in experiment [2] worked out at 0.0013 µM.

Consider “(S)—N-((1s,4R)-4-(1,1-difluoroethyl)-4-hydroxycyclohexyl)-4-(5-(5-fluoro-2-methoxypyridin-4-yl)-1H-pyrazole-3-carbonyl)-4-azaspiro[2.5]octane-7-carboxamide and (S)—N-((1r,4S)-4-(1,1-difluoroethyl)-4-hydroxycyclohexyl)-4-(5-(5-fluoro-2-methoxypyridin-4-yl)-1H-pyrazole-3-carbonyl)-4-azaspiro[2.5]octane-7-carboxamide [Example 375]”, for which, in experiment [1], the AC50 is 0.0064 µM. Besides, the IC50 in experiment [2] came out at 0.0016 µM.

Take `COc1cc(-c2cc(C(=O)N3CCC(C(=O)NC4CCN(c5ccnc6[nH]ncc56)C4)CC34CC4)n[nH]2)c(F)cn1` (mixture of isomers) [Example 450, (S)—N—((S)-1-(1H-pyrazolo[3,4-b]pyridin-4-yl)pyrrolidin-3-yl)-4-(5-(5-fluoro-2-methoxypyridin-4-yl)-1H-pyrazole-3-carbonyl)-4-azaspiro[2.5]octane-7-carboxamide and (S)—N—((R)-1-(1H-pyrazolo[3,4-b]pyridin-4-yl)pyrrolidin-3-yl)-4-(5-(5-fluoro-2-methoxypyridin-4-yl)-1H-pyrazole-3-carbonyl)-4-azaspiro[2.5]octane-7-carboxamide]: the AC50 in experiment [1] is 0.0015 µM. For the same compound, the IC50 in experiment [2] was 0.114 µM.

As to `COc1cc(-c2cc(C(=O)N3CC[C@H](C(=O)NCc4nnn(C)c4C(F)(F)F)CC34CC4)[nH]n2)c(F)cn1` [Example 508, (S)-4-(3-(5-fluoro-2-methoxypyridin-4-yl)-1H-pyrazole-5-carbonyl)-N-((1-methyl-5-(trifluoromethyl)-1H-1,2,3-triazol-4-yl)methyl)-4-azaspiro[2.5]octane-7-carboxamide], the AC50 in experiment [1] was 0.0056 µM. In addition, the IC50 in experiment [2] (Homo sapiens, UM-UC-9, 144 h) came out at 0.0085 µM.

Regarding `COc1cc(-c2cc(C(=O)N3CCC(NC(=O)C4CCC(O)(C(F)(F)F)CC4)CC34CC4)n[nH]2)c(F)cn1` (single isomer, unassigned) [Example 347-A], the AC50 in experiment [1] was found to be 0.0816 µM. For the same compound, the IC50 in experiment [2] came out at 0.396 µM.

For `COc1cc(-c2cc(C(=O)N3CC[C@H](C(=O)NCc4conc4C(F)(F)F)CC34CC4)[nH]n2)c(F)cn1` [Example 505, (S)-4-(3-(5-fluoro-2-methoxypyridin-4-yl)-1H-pyrazole-5-carbonyl)-N-((3-(trifluoromethyl)isoxazol-4-yl)methyl)-4-azaspiro[2.5]octane-7-carboxamide], the AC50 in experiment [1] stood at 0.0069 µM. The IC50 in experiment [2] (Homo sapiens, UM-UC-9, 144 h) is 0.0103 µM.

Consider `COc1cc(-c2cc(C(=O)N3CCC(C(=O)NC4CCC(OCC(C)OC)(C(F)(F)F)CC4)CC34CC4)n[nH]2)c(F)cn1` (single isomer, unassigned) [Example 340-B], for which, in experiment [1], the AC50 turned out to be 0.019 µM. Moreover, the IC50 in experiment [2] amounted to 0.0107 µM.

For “(1R,3s,5S)—N-((1r,4R)-4-ethoxy-4-(trifluoromethyl)cyclohexyl)-8-(5-(5-fluoro-2-methoxypyridin-4-yl)-1H-pyrazole-3-carbonyl)-8-azabicyclo[3.2.1]octane-3-carboxamide and (1R,3s,5S)—N-((1s,4S)-4-ethoxy-4-(trifluoromethyl)cyclohexyl)-8-(5-(5-fluoro-2-methoxypyridin-4-yl)-1H-pyrazole-3-carbonyl)-8-azabicyclo[3.2.1]octane-3-carboxamide [Example 303]”, the AC50 in experiment [1] was 0.0073 µM. The IC50 in experiment [2] came out at 0.0415 µM.

As for `COc1cc(-c2cc(C(=O)N3CC[C@H](C(=O)NC4CCN(CCF)C(C)(C)C4)CC34CC4)n[nH]2)c(F)cn1` (single isomer, unassigned) [Example 425-A], the AC50 in experiment [1] was found to be 2.51 µM. Besides, in experiment [2], the IC50 was over 10 µM.

Turning to `COc1cc(-c2[nH]nc(C(=O)N3CCC(C(=O)NC4CCC(C)CC4)CC3)c2Cl)ccn1` (mixture of isomers) [Example 110, 1-[4-chloro-5-(2-methoxypyridin-4-yl)-1H-pyrazole-3-carbonyl]-N-[(1s,4s)-4-methylcyclohexyl]piperidine-4-carboxamide and 1-[4-chloro-5-(2-methoxypyridin-4-yl)-1H-pyrazole-3-carbonyl]-N-[(1r,4r)-4-methylcyclohexyl]piperidine-4-carboxamide], in experiment [1], the AC50 worked out at 0.575 µM. For the same compound, the IC50 in experiment [2] turned out to be 1.21 µM.

For `CCc1cc(-c2cc(C(=O)N3CCC(C(=O)NCc4ncc(F)cc4Cl)CC34CC4)n[nH]2)c(F)cn1` (racemic) [Example 483, (S)—N-((3-chloro-5-fluoropyridin-2-yl)methyl)-4-(5-(2-ethyl-5-fluoropyridin-4-yl)-1H-pyrazole-3-carbonyl)-4-azaspiro[2.5]octane-7-carboxamide and (R)—N-((3-chloro-5-fluoropyridin-2-yl)methyl)-4-(5-(2-ethyl-5-fluoropyridin-4-yl)-1H-pyrazole-3-carbonyl)-4-azaspiro[2.5]octane-7-carboxamide], in experiment [1], the AC50 worked out at 0.0062 µM. Besides, in experiment [2], the IC50 was found to be 0.0445 µM.

In the case of `COc1cc(-c2cc(C(=O)N3CC[C@H](C(=O)N[C@H]4CN(c5ccc(C)nc5)C[C@H]4F)CC34CC4)n[nH]2)c(F)cn1` [Example 428, (S)—N-((3S,4R)-4-fluoro-1-(6-methylpyridin-3-yl)pyrrolidin-3-yl)-4-(5-(5-fluoro-2-methoxypyridin-4-yl)-1H-pyrazole-3-carbonyl)-4-azaspiro[2.5]octane-7-carboxamide], in experiment [1], the AC50 turned out to be 0.0547 µM. The IC50 in experiment [2] (Homo sapiens, UM-UC-9, 144 h) is 0.141 µM.

Take `COc1cc(-c2cc(C(=O)N3CCC(C(=O)Nc4cnn(CC(F)(F)F)c4)CC3)n[nH]2)c(Cl)cn1` [Example 126, 1-(5-(5-chloro-2-methoxypyridin-4-yl)-1H-pyrazole-3-carbonyl)-N-(1-(2,2,2-trifluoroethyl)-1H-pyrazol-4-yl)piperidine-4-carboxamide]: the AC50 in experiment [1] was determined as 0.707 µM. Further, the IC50 in experiment [2] (Homo sapiens, UM-UC-9, 144 h) was determined as 2.46 µM.

For the compound `COc1cc(-c2cc(C(=O)N3CCC(C(=O)NC4(C(F)(F)F)CCCC4)CC3)n[nH]2)c(Cl)cn1` [Example 162, 1-(5-(5-chloro-2-methoxypyridin-4-yl)-1H-pyrazole-3-carbonyl)-N-(1-(trifluoromethyl)cyclopentyl)piperidine-4-carboxamide], the AC50 in experiment [1] amounted to 0.588 µM. In addition, in experiment [2] (Homo sapiens, UM-UC-9, 144 h), the IC50 came out at 0.908 µM.
